Experimental data from patent US11155879B2, “Method of predicting effects of CDC7 inhibitor” (TAKEDA PHARMACEUTICAL COMPANY LIMITED, priority 2017, dated 2021).

Tested on: pancreatic patient-derived tumor xenografts (PDX models)
Test: In vivo antitumor activity in female BALB/c nude mice bearing patient-derived tumor xenografts (PDXs)
Conditions: 60 mg/kg, Bid, po, 21 days, 3 days on 4 days off
Source text: In Vivo Antitumor Activity of Compound 1 Hemihydrate in Female BALB/c Nude Mice Bearing Patient-Derived Tumor Xenografts (PDXs)
Tumor fragments from seed mice inoculated with selected PDX tumors were harvested and used for inoculation into BALB/c nude mice. Each mouse was inoculated subcutaneously at the right flank with one tumor fragment (2-3 mm in diameter). The treatments were started when mean tumor size reached approximately 200-250 mm^3. For each model, 6 tumor bearing mice were randomized into 2 groups. Mice were dosed orally with either vehicle (0.5% w:v methyl cellulose) or Compound 1 hemihydrate Form A crystal (60 mg/kg, Bid, po, 21 days, 3 days on 4 days off).
The % tumor growth inhibition (TGI) was taken as endpoints to determine when the tumor growth can be delayed or mice can be cured. Tumor sizes were measured twice weekly in two dimensions using a caliper, and the volume is expressed in mm^3 using the formula: V=0.5a×b^2,
where a and b are the long and short diameters of the tumor, respectively. The % TGI was calculated using the following formula: % TGI=(1−(Ti-T0)/(Vi-V0))*100 […]

SMILES: Cc1n[nH]cc1-c1cc2nc([C@@H]3CC4CCN3CC4)[nH]c(=O)c2s1 [Compound 1 hemihydrate, 2-[(2S)-1-azabicyclo[2.2.2]oct-2-yl]-6-(3-methyl-1H-pyrazol-4-yl)thieno[3,2-d]pyrimidin-4(3H)-one]
- tumor growth inhibition (% TGI) (22 out of 25 pancreatic PDX models, vs vehicle (0.5% methyl cellulose)): > 60%
- sensitivity of KRAS-mutant pancreatic tumors compared to KRAS-wild type ones (correlative study on % TGI, FIG. 1) (pancreatic PDX models, Student's t-test KRAS-mutant vs KRAS-wild): more sensitive
